Laboratory results reported in the CheMixHub viscosity set.
± gives the uncertainty stated by the source.

Experiment: xn = mol fraction of the nth substance listed
Conditions: 101 kPa

OCCOCCOCCO + CN(C)C=O
viscosity [mPa·s]
Conditions | 293.15 K | 298.15 K | 303.15 K | 308.15 K | 313.15 K | 318.15 K
x1 = 0.025 | 1 ± 0.02 | 0.933 ± 0.02 | 0.868 ± 0.018 | 0.847 ± 0.018 | 0.768 ± 0.016 | 0.727 ± 0.015
x1 = 0.0513 | 1.15 ± 0.02 | 1.07 ± 0.02 | 0.987 ± 0.021 | 0.952 ± 0.02 | 0.876 ± 0.019 | 0.815 ± 0.017
x1 = 0.0791 | 1.33 ± 0.03 | 1.24 ± 0.03 | 1.13 ± 0.02 | 1.08 ± 0.02 | 0.997 ± 0.021 | 0.921 ± 0.02
x1 = 0.1085 | 1.54 ± 0.03 | 1.42 ± 0.03 | 1.31 ± 0.03 | 1.22 ± 0.03 | 1.15 ± 0.02 | 1.05 ± 0.02
x1 = 0.1396 | 1.81 ± 0.04 | 1.68 ± 0.04 | 1.51 ± 0.03 | 1.39 ± 0.03 | 1.32 ± 0.03 | 1.21 ± 0.03
x1 = 0.1726 | 2.12 ± 0.05 | 1.95 ± 0.04 | 1.76 ± 0.04 | 1.6 ± 0.03 | 1.52 ± 0.03 | –
x1 = 0.2077 | 2.53 ± 0.05 | 2.3 ± 0.05 | 2.07 ± 0.04 | 1.85 ± 0.04 | 1.76 ± 0.04 | –
x1 = 0.245 | 3.02 ± 0.06 | 2.74 ± 0.06 | 2.44 ± 0.05 | 2.16 ± 0.05 | 2.06 ± 0.04 | –
x1 = 0.2848 | 3.64 ± 0.08 | 3.27 ± 0.07 | 2.88 ± 0.06 | 2.53 ± 0.05 | 2.41 ± 0.05 | –
x1 = 0.3274 | 4.45 ± 0.1 | 3.93 ± 0.08 | 3.45 ± 0.07 | 3 ± 0.06 | 2.85 ± 0.06 | –
x1 = 0.373 | 5.37 ± 0.12 | 4.74 ± 0.1 | 4.12 ± 0.09 | 3.55 ± 0.08 | 3.33 ± 0.07 | –
x1 = 0.422 | 6.64 ± 0.14 | 5.77 ± 0.13 | 4.96 ± 0.11 | 4.25 ± 0.09 | 3.96 ± 0.08 | –
x1 = 0.4748 | 8.33 ± 0.18 | 7.17 ± 0.16 | 6.09 ± 0.13 | 5.12 ± 0.11 | 4.79 ± 0.1 | –
x1 = 0.5318 | 10.3 ± 0.2 | 8.94 ± 0.19 | 7.5 ± 0.17 | 6.17 ± 0.13 | 5.77 ± 0.12 | –
x1 = 0.5935 | 12.9 ± 0.3 | 10.9 ± 0.2 | 9.08 ± 0.2 | 7.6 ± 0.16 | 6.92 ± 0.15 | –
x1 = 0.6607 | 16.5 ± 0.4 | 13.7 ± 0.3 | 11.3 ± 0.3 | 9.37 ± 0.2 | 8.38 ± 0.18 | –
x1 = 0.7339 | 21.2 ± 0.5 | 17.4 ± 0.4 | 14.2 ± 0.3 | 11.6 ± 0.3 | 10.3 ± 0.2 | –
x1 = 0.8141 | 27.4 ± 0.6 | 22.2 ± 0.5 | 17.9 ± 0.4 | 14.4 ± 0.3 | 12.8 ± 0.3 | –
x1 = 0.9024 | 35.5 ± 0.8 | 28.6 ± 0.6 | 22.7 ± 0.5 | 17.6 ± 0.4 | 15.8 ± 0.3 | –
